Data published in patent US20080161254A1, “HCV INHIBITORS” (ViroBay, Inc., priority 2007, published 2008).

These molecules were tested on HCV replication (HCV replicon-containing Huh7/Clone A cells) (assay: HCV replicon assay). Details: Hepatitis C virus, Huh-7, 48 hours incubation, HCV replicon RNA by RT-qPCR normalized to total RNA, read-out: IC50, inhibition of HCV replication.
Type: cell-based
From the text: The HCV replicon assay is a cell-culture system that mimics in vivo HCV replication and provides a system to study HCV replication in vitro. It was created by transfecting cloned viral RNA derived from a consensus HCV genomic sequence into human Huh7 hepatoma cells that are semi-permissive for viral RNA production (Lohmann V., Korner F., Koch J.-0., Herian U., Theilmann L. and Bartenschlager R. (1999). Replication of subgenomic Hepatitis C virus RNAs in a hepatoma cell line. Science 285, 110-113 and Blight K. J., Kolykhalov A. A. and Rice C. M. (2000). Efficient initiation of HCV RNA Replication in cell culture. Science 290, […]). These transfected cell lines contain a subgenomic HCV RNA genome that includes (1) the HCV 5′NTR fused to 12 amino acids of the capsid coding region, (2) the neomycin phosphotransferase gene (Neo) as a selectable marker, (3) the internal ribosome entry site (IRES) from encephalomyocarditis virus (EMCV) that directs translation of HCV non-structural proteins (variously NS2 or NS3 to NS5B), and (4) the 3′ NTR. Replicon-containing cells autonomously and persistently replicate HCV RNA that can be measured quantitatively by real-time qPCR. Therefore, the replicon system facilitates quantitative assessment of anti-viral activity by monitoring changes in HCV RNA replication in a cell-based assay.
HCV replicon-containing cells (Huh7/Clone A) were routinely maintained in Clone A growth medium (DMEM medium [Invitrogen], supplemented with 10% Fetal Bovine Serum, 1% Non Essential Amino Acids and 1 g/L G418). […]
Total RNA eluted in 130 μl of RNase-free dH2O was quantitated by the RiboGreen Assay according to the supplier's protocol (Molecular Probe). […] RNA samples in the black microplate were mixed with 95 μl of diluted RiboGreen reagent (1:250 dilution in TE buffer) and sample fluorescence was measured using a fluorescence microplate reader at standard fluorescein wavelengths (excitation ˜480 nm, emission ˜520 nm). […]
TaqMan quantitative PCR(RT-qPCR) was used to quantitate the amount of HCV replicon RNA in each sample. […]
Molecule `CCC[C@H](NC(=O)[C@@H]1C[C@@H](Oc2cc(-c3ccccn3)nc3ccsc23)CN1C(=O)[C@@H](NC(=O)NC(C)(C)C)C(C)(C)C)C(=O)C(=O)NC1CC1` [Example 5, (2S,4R)-1-((S)-2-(3-tert-butylureido)-3,3-dimethylbutanoyl)-N—((S)-1-(cyclopropylamino)-1,2-dioxohexan-3-yl)-4-(5-(pyridin-2-yl)thieno[3,2-b]pyridin-7-yloxy)pyrrolidine-2-carboxamide] has an IC50 of under 1000 nM. In the case of `CCC[C@H](NC(=O)[C@@H]1C[C@@H](Oc2nc(-c3ccccn3)nc3sccc23)CN1C(=O)[C@@H](NC(=O)NC(C)(C)C)C(C)(C)C)C(=O)C(=O)NC1CC1` [Example 6, (2S,4R)-1-((S)-2-(3-tert-butylureido)-3,3-dimethylbutanoyl)-N—((S)-1-(cyclopropylamino)-1,2-dioxohexan-3-yl)-4-(2-(pyridin-2-yl)thieno[2,3-d]pyrimidin-4-yloxy)pyrrolidine-2-carboxamide], the IC50 is reported as under 1000 nM. Work on `CCC[C@H](NC(=O)[C@@H]1C[C@@H](Oc2nc(-c3ccccn3)nc3ccsc23)CN1C(=O)[C@@H](NC(=O)NC(C)(C)C)C(C)(C)C)C(=O)C(=O)NC1CC1` [Example 7, (2S,4R)-1-((S)-2-(3-tert-butylureido)-3,3-dimethylbutanoyl)-N—((S)-1-(cyclopropylamino)-1,2-dioxohexan-3-yl)-4-(2-(pyridin-2-yl)thieno[3,2-d]pyrimidin-4-yloxy)pyrrolidine-2-carboxamide] yielded an IC50 of under 1000 nM.
